Reference: patent US9968603B2, “Systems for sustained intraocular delivery of low solubility compounds from a port delivery system implant” (ForSight Vision4, Inc., priority 2013, dated 2018)
≈ marks a conversion by molar mass, not a printed value. Structures can show the parent of a compound that is named as a salt. Where two headings read alike, the source gives them in different places. Blank lines part the entries; values can stand above or below the compound they belong to.

Columns and labels:
[1] = Formulation (solubility) screening with cyclodextrins, concentrations achieved; format: physicochemical; conditions: for SBE-β-CD [CAPTISOL] Formulations (CD Excess), concentration: CD excess: Pazopanib 20 (5x), 50 (2.5x), 80 (2.5x), Sunitinib 2.5x, 4x, Axitinib 6x, Linifanib 8x, Motesanib 2x; for Expected Concentration Achieved: achieved vs expected formulation concentration
Procedure: For example, solid therapeutic agents are mixed in an aqueous solution with cyclodextrin, buffering agent, and/or other formulation agents of the current invention. The pH of the resulting mixture is adjusted with a base, for example, NaOH, or an acid, for example, citric acid. The mixture is then filtered, and the resulting filtered solution is used to fill the PDS.
A solubility screening of the therapeutic agent of the invention was carried out during the pre-formulation stage. For example, the solubility of the therapeutic agents in acids, cyclodextrin (CD) (e.g., SBEβCD (CAPTISOL®), HPβCD, HPγCD), hydrophilic stabilizing agents (e.g., PVP), and buffering agents (e.g., citric acid, histidine) were explored. Systematic formulation screening may include determination of CD:therapeutic agent ratio, pH, therapeutic agent concentration, and agents.
For example, in the formulation process with complexing agents such as cyclodextrins, a vial of solid therapeutic agent was mixed with a vial containing a solution of CD, acid, and agents in water. The pH of the resulting mixture was adjusted by NaOH. The mixture was then be filtered, and the resulting filtered solution was used to fill the PDS device or used to determine its stability.

[2] = Viscosity and water content of cyclodextrin formulations; format: physicochemical; conditions: 80 mg/mL Pazopanib
Aqueous solubility = format: physicochemical
[3] = Formulations with amphiphilic agents and non-aqueous solvents (no complexing agent), concentration dissolved; format: physicochemical; conditions: neat PEG 300
[4] = Diffusion coefficient from Release Rate Index and single exponential model, compared with Stokes-Einstein prediction; conditions: 21 mg/mL Sunitinib, 2.5:1 molar ratio HPβCD
Procedure: The measured diffusion coefficient was compared to the diffusion coefficient predicted (using Stokes-Einstein equation to correct for MW (via volume of diffusing species) and temperature (via temperature dependence of the viscosity of water)) for a molecule of that molecular weight.
The rate was assessed by using the measured Release Rate Index (RRI) and volume for a particular device and using the single exponential diffusion model to determine a measured diffusion coefficient for a particular formulation and device combination. The measured diffusion coefficient was compared to the diffusion coefficient predicted (using Stokes-Einstein equation to correct for MW (via volume of diffusing species) and temperature (via temperature dependence of the viscosity of water)) for a molecule of that molecular weight.

SBE-β-CD [CAPTISOL] Formulations (CD Excess), concentration [1]: 30 mg/mL | Expected Concentration Achieved [1]: No
Compound: CC1(C)CNc2cc(NC(=O)c3cccnc3NCc3ccncc3)ccc21 [Motesanib, N-(2,3-Dihydro-3,3-dimethyl-1H-indol-6-yl)-2-[(4-pyridinylmethyl)amino]-3-pyridinecarboxamide]

viscosity ([2]; 2.2:1 molar ratio CAPTISOL): at least 5 centipoise | water content ([2]; 5:1 CAPTISOL): approximately 0.5 g/mL | solubility (Aqueous solubility; aqueous solution with 0.1% polysorbate-20, aqueous with cosolvent or surfactant or cyclodextrin): 0.1 µg/mL | solubility in phosphate buffered saline (Aqueous solubility; neutral pH): insoluble
Compound: Cc1ccc(Nc2nccc(N(C)c3ccc4c(C)n(C)nc4c3)n2)cc1S(N)(=O)=O [Pazopanib, 5-[[4-[(2,3-dimethyl-2H-indazol-6-yl)methylamino]-2-pyrimidinyl]amino]-2-methylbenzenesulfonamide monohydrochloride]

solubility (Aqueous solubility; PBS, aqueous buffer, read-out: solubility in PBS): 0.3 µg/mL (≈ 0.776 µM)
Compound: CNC(=O)c1ccccc1Sc1ccc2c(/C=C/c3ccccn3)n[nH]c2c1 [Axitinib, N-Methyl-2-((3-((1E)-2-(pyridin-2-yl)ethenyl)-1H-indazol-6-yl)sulfanyl)benzamide]

SBE-β-CD [CAPTISOL] Formulations (CD Excess), concentration [1]: 6 mg/mL | Expected Concentration Achieved [1]: No | concentration formulated [3]: 20000 µg/mL
Compound: Cc1ccc(F)c(NC(=O)Nc2ccc(-c3cccc4[nH]nc(N)c34)cc2)c1 [Linifanib, N-[4-(3-Amino-1H-indazol-4-yl)phenyl]-N′-(2-fluoro-5-methylphenyl)urea]

solubility (Aqueous solubility; aqueous solution, pH 4.1, aqueous buffer, read-out: solubility): > 25000 µg/mL | solubility (Aqueous solubility; aqueous solution, pH 7.4, aqueous buffer, read-out: solubility): 10 µg/mL | measured diffusion coefficient [4]: 3.3e-7 cm^2/s | times lower than the predicted single molecule diffusion coefficient [4]: 20 times
Compound: CCN(CC)CCNC(=O)c1c(C)[nH]c(/C=C2\C(=O)Nc3ccc(F)cc32)c1C.O=C(O)CC(O)C(=O)O [Sunitinib, Butanedioic acid, hydroxy-, (2S)-, compound with N-[2-(diethylamino)ethyl]-5-[(Z)-(5-fluoro-1,2-dihydro-2-oxo-3H-indol-3-ylidine)methyl]-2,4-dimethyl-1H-pyrrole-3-carboxamide (1:1)]
